# Results reported in US20250121090A1, “Antibody-Drug Conjugates and Methods of Use Thereof” (priority 2021, published 2025).
# Legend:
# Karpas 299 xenograft = Karpas 299 xenograft study with anti-CD30 ADCs; conditions: single i.v. dose 3 mg/kg (equal dosing)
# L-82 xenograft = L-82 xenograft with CD30 ADCs; format: in vivo, NOD/SCID mice; conditions: single i.v. dose 3 mg/kg (equal dosing)
# Method: Female NOD/SCID mice were used (8 mice/group) for the study. Animals were inoculated subcutaneously in the flank with 10 million cells in 50% PBS/50% Matrigel. When tumors reached an average volume of 100 mm^3, all animals were treated (Day 0) with a single 10 mg/kg intravenous dose of human IgG. Then, on Day 1, animals were treated with vehicle alone, with unconjugated antibody (3 mg/kg), or with an ADC at 1.5 or 3 mg/kg. The animals were monitored twice weekly for body weight and tumor size. Animals were euthanized when tumors reached 2000 mm^3. ADCs were highly efficacious in this study.
# Granta 519 xenograft = assay: First Granta xenograft study; format: in vivo; conditions: polatuzumab ADCs, single dose on Day 7, equal payload dosing levels
# Description: First Granta Xenograft Study Results: Polatuzumab ADCs carrying MMAE conjugated through five different linker types, including vedotin and CT aldehyde-tagged HIPS conjugates were compared for efficacy at equal payload dosing levels in a Granta 519 xenograft study.
# Male Sprague-Dawley rats = assay: Multi-dose non-GLP rat toxicology study #1; format: in vivo; conditions: polatuzumab ADCs, DAR ~4, i.v. weekly for 4 doses (days 1, 8, 15, 22), equal payload/equal antibody dosing
Substance,complete responses (Karpas 299 xenograft),complete responses (L-82 xenograft),efficacy (tumor growth inhibition) (Granta 519 xenograft),tolerability (white and red blood cell parameters) (Male Sprague-Dawley rats)
Adcetris: anti-CD30 ADC used as comparator,6/6,8 complete responses out of 8 mice/group,–,–
polatuzumab vedotin,–,–,longest tumor growth inhibition,marked myelosuppression
